Results on 48 compounds are retold here after ChEMBL document CHEMBL1132189, “Three-dimensional quantitative structure-activity relationship analyses using comparative molecular field analysis and comparative molecular similarity indices analysis to elucidate selectivity differences of inhibitors binding to trypsin, thrombin, and factor Xa” (J Med Chem, 1999).

In test [1] the target is Prothrombin (Bos taurus, UniProt P00735). As to the kind of experiment: Binding affinity towards thrombin.
In test [2] the target is T1, Serine protease 1 (Bos taurus, UniProt P00760).
T1 sequence (P00760 whole entry): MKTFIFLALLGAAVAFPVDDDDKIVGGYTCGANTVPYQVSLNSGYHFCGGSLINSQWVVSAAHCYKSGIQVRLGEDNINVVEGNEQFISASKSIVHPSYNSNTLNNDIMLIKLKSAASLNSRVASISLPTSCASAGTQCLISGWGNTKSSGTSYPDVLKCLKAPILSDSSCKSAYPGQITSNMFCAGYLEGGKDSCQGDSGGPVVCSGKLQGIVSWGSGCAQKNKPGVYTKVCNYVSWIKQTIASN
As to the kind of experiment: Binding affinity towards trypsin.

For test [3], the target named is Coagulation factor X (Homo sapiens, UniProt P00742). As to the kind of experiment: Binding affinity towards Coagulation factor Xa.
Chain of Coagulation factor X (P00742 41-179 limits assumed): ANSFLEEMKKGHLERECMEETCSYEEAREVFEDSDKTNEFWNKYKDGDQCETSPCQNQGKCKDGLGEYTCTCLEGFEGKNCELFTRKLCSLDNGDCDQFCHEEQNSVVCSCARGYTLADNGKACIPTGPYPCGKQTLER
Chain of Coagulation factor X (P00742 235-488 limits assumed): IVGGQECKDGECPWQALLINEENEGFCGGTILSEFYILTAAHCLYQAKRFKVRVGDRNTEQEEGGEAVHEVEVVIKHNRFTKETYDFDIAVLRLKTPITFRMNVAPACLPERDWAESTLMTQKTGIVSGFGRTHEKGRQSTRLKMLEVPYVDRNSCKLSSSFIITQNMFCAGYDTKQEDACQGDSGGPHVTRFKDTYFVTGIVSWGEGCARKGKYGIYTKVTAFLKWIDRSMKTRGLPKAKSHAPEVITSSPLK

What is called Ki is a measure of affinity in units of concentration, obtained from inhibition or displacement. Take `COC(=O)[C@H]1CCCCN1C(=O)[C@H](Cc1cccc(C(=N)N)c1)NS(=O)(=O)c1ccc2ccccc2c1`: the Ki in test [1] is 0.0692 µM; in test [2], 1.9 µM; in test [3], 46 µM.
`N=C(N)c1cccc(C[C@H](NS(=O)(=O)c2ccc3ccccc3c2)C(=O)N2CCCC2)c1`: the figures for the Ki in test [1], in test [2] and in test [3] were 0.052 µM, 0.437 µM and 50 µM, respectively.
For the compound `N=C(N)c1cccc(C[C@H](NS(=O)(=O)c2ccc3ccccc3c2)C(=O)N2CCCC[C@@H]2C(=O)O)c1`, the figures for the Ki in test [1], in test [2] and in test [3] were 0.26 µM, 0.631 µM and 38 µM, respectively.
Take `Cc1cc(C)c(S(=O)(=O)N[C@@H](Cc2cccc(C(=N)N)c2)C(=O)N2CCC(C)CC2)c(C)c1`: the inhibitory constant (Ki) in test [1] is 0.059 µM; in test [2], 4 µM; in test [3], 95.5 µM.
On to `CN(C)C(=O)N1CCN(C(=O)[C@H](Cc2cccc(C(=N)N)c2)NS(=O)(=O)c2ccc3ccccc3c2)CC1`, for which the inhibitory constant (Ki) in test [1] is 0.00871 µM; in test [2], 0.17 µM; in test [3], 24 µM.
Consider `CC1CCN(C(=O)[C@@H](N)Cc2cccc(C(=N)N)c2)CC1`, for which the results for the Ki in test [2] and in test [3] were 29 µM and 230 µM, respectively.
As to `N=C(N)c1cccc(C[C@H](NS(=O)(=O)c2ccc3ccccc3c2)C(=O)N2CCC(C(=O)NCc3ccccc3)CC2)c1`, the figures for the Ki in test [1], in test [2] and in test [3] were 3.1 µM, 0.27 µM and 35 µM, respectively.
In the same order, the values of `N=C(N)c1cccc(C[C@H](NS(=O)(=O)c2ccc3ccccc3c2)C(=O)N2CCC[C@H](C(=O)NCc3ccccc3)C2)c1` are 0.28 µM, 0.12 µM and 17 µM.
In the same order, the values of `N=C(N)c1cccc(C[C@H](NS(=O)(=O)c2ccc3ccccc3c2)C(=O)N2CCC(C=O)CC2)c1` are 0.037 µM, 0.22 µM and 19 µM.
In the same order, the values of `N=C(N)c1cccc(C[C@H](NS(=O)(=O)c2ccc3ccccc3c2)C(=O)N2CCC(C(=O)OC3CCCCC3)CC2)c1` are 2.1 µM, 0.08 µM and 7.6 µM.
On to `CNC(=O)[C@H](Cc1cccc(C(=N)N)c1)NS(=O)(=O)c1c(C)c(C)c2c(c1C)CCC(C)(C)O2`, for which the inhibitory constant (Ki) in test [2] was 32 µM; in test [3], 10 µM.
Take `N=C(N)c1cccc(C[C@H](NS(=O)(=O)c2ccc3ccccc3c2)C(=O)N2CCC(C(=O)O)CC2)c1`: the values for the inhibition constant (Ki) in test [1], in test [2] and in test [3] were 0.57 µM, 0.579 µM and 43.4 µM, respectively.
`N=C(N)c1cccc(C[C@H](NS(=O)(=O)c2ccc3ccccc3c2)C(=O)N2CCc3ccccc3C2)c1`: the Ki in test [1] is 0.037 µM; in test [2], 0.26 µM; in test [3] it was 18 µM.
Consider `CNC(=O)[C@H](Cc1cccc(C(=N)N)c1)NS(=O)(=O)c1c(C(C)C)cc(C(C)C)cc1C(C)C`, for which the figures for the Ki in test [1], in test [2] and in test [3] were 3.8 µM, 26 µM and 11 µM, respectively.
As to `CNC(=O)[C@H](Cc1cccc(C(=N)N)c1)NS(=O)(=O)c1c(C)cc(OC)c(C)c1C`, the values for the Ki in test [1], in test [2] and in test [3] were 17 µM, 140 µM and 190 µM, respectively.
In the same order, the values of `CC1CCN(C(=O)[C@H](Cc2cccc(C(=N)N)c2)NS(=O)(=O)c2c(C(C)C)cc(C(C)C)cc2C(C)C)CC1` are 0.0741 µM, 0.69 µM and 2 µM.
Take `N=C(N)c1cccc(C[C@H](NS(=O)(=O)c2ccc3ccccc3c2)C(=O)OCc2ccccc2)c1`: the inhibition constant Ki is 0.042 µM in test [1], 0.52 µM in test [2] and 2.2 µM in test [3].
With `CNC(=O)C1CCN(C(=O)[C@H](Cc2cccc(C(=N)N)c2)NS(=O)(=O)c2ccc3ccccc3c2)CC1`, the Ki in test [1] was 0.16 µM; in test [2] it was 0.16 µM; in test [3] it was 76 µM.
As to `CC1CCN(C(=O)[C@H](Cc2cccc(C(=N)N)c2)NS(=O)(=O)c2cccc3cccnc23)CC1`, the Ki in test [1] was 0.34 µM; in test [3] it was 180 µM.
For the compound `N=C(N)c1cccc(C[C@H](NS(=O)(=O)c2ccc3ccccc3c2)C(=O)N2CCC(C(=O)OCc3ccccc3)CC2)c1`, the inhibition constant Ki in test [1] is 0.21 µM; in test [2], 0.067 µM; in test [3] it was 8.09 µM.
On to `COC(=O)N1CCN(C(=O)[C@H](Cc2cccc(C(=N)N)c2)NS(=O)(=O)c2ccc3ccccc3c2)CC1`, for which the Ki in test [1] was 0.019 µM; in test [2], 0.02 µM; in test [3], 77.6 µM.
For `CS(=O)(=O)N1CCN(C(=O)[C@@H](N)Cc2cccc(C(=N)N)c2)CC1`, in that order: 13 µM, 29 µM and 1000 µM.
For `COC(=O)C1CCN(C(=O)[C@H](Cc2cccc(C(=N)N)c2)NS(=O)(=O)c2ccc3ccccc3c2)CC1`, in that order: 0.017 µM, 0.036 µM and 42.7 µM.
`N=C(N)c1cccc(C[C@H](NS(=O)(=O)c2ccc3ccccc3c2)C(=O)N2CCC(N3CCCCC3)CC2)c1`: the Ki in test [1] was 15.1 µM; in test [2], 1 µM; in test [3], 22 µM.
`Cc1ccc(S(=O)(=O)N[C@@H](Cc2cccc(C(=N)N)c2)C(=O)N2CCCCC2)cc1`: the Ki in test [1] was 0.34 µM; in test [3] it was 15.1 µM.
`COc1cc(C)c(S(=O)(=O)N[C@@H](Cc2cccc(C(=N)N)c2)C(=O)N2CCN(S(C)(=O)=O)CC2)c(C)c1C`: the Ki in test [1] is 0.032 µM; in test [2] it was 1.8 µM; in test [3], 120 µM.
`Cc1ccc(S(=O)(=O)N[C@@H](Cc2cccc(C(=N)N)c2)C(=O)N2CCOCC2)cc1`: the figures for the Ki in test [1], in test [2] and in test [3] were 0.17 µM, 0.71 µM and 52 µM, respectively.
For `N=C(N)c1cccc(C[C@H](NS(=O)(=O)c2ccc3ccccc3c2)C(=O)N2CCC[C@H](C(=O)O)C2)c1`, in that order: 1.1 µM, 0.437 µM and […].
On to `CC(C)OC(=O)C1CCN(C(=O)[C@H](Cc2cccc(C(=N)N)c2)NS(=O)(=O)c2ccc3ccccc3c2)CC1`, for which the inhibitory constant (Ki) was 0.71 µM in test [1], 0.023 µM in test [2] and 25.1 µM in test [3].
Turning to `CC(C)NC(=O)[C@H](Cc1cccc(C(=N)N)c1)NS(=O)(=O)c1ccc2ccccc2c1`, the Ki is 6.19 µM in test [1], 16 µM in test [2] and 360 µM in test [3].
In the case of `N=C(N)c1cccc(C[C@H](NS(=O)(=O)c2ccc3ccccc3c2)C(=O)N2CC[C@@H]3CCCC[C@H]32)c1`, the Ki is 0.32 µM in test [1], 1.2 µM in test [2] and 13 µM in test [3].
Consider `N=C(N)c1cccc(C[C@H](NS(=O)(=O)c2ccc3ccccc3c2)C(=O)N2CCN(c3ccccc3)CC2)c1`, for which the inhibition constant (Ki) in test [1] was 0.52 µM; in test [2] it was 0.027 µM; in test [3], 27 µM.
Consider `CC1CCN(C(=O)[C@H](Cc2cccc(C(=N)N)c2)NS(=O)(=O)c2ccc(C(C)(C)C)cc2)CC1`, for which the Ki in test [1] is 0.005 µM; in test [2] it was 0.2 µM; in test [3], 12 µM.
Turning to `COC(=O)[C@H]1CCC[C@H](C)N1C(=O)[C@H](Cc1cccc(C(=N)N)c1)NS(=O)(=O)c1ccc2ccccc2c1`, the inhibition constant Ki in test [1] is 0.42 µM; in test [2] it was 2.1 µM; in test [3], 3.2 µM.
As for `CS(=O)(=O)N1CCN(C(=O)[C@H](Cc2cccc(C(=N)N)c2)NS(=O)(=O)c2ccc3ccccc3c2)CC1`, the inhibition constant Ki is 0.19 µM in test [2] and 22 µM in test [3].
As to `CCCCOC(=O)[C@H](Cc1cccc(C(=N)N)c1)NS(=O)(=O)c1ccc2ccccc2c1`, the inhibitory constant (Ki) in test [1] was 0.013 µM; in test [2], 0.26 µM; in test [3] it was 3.1 µM.
On to `COC(=O)[C@H](Cc1cccc(C(=N)N)c1)NS(=O)(=O)c1ccc2ccccc2c1`, for which the values for the Ki in test [1], in test [2] and in test [3] were 0.28 µM, 2.51 µM and 2.51 µM, respectively.
`CC1CCN(C(=O)[C@H](Cc2cccc(C(=N)N)c2)NS(=O)(=O)C[C@]23CC[C@H](CC2=O)C3(C)C)CC1`: the Ki was 0.0141 µM in test [1], 0.631 µM in test [2] and 14.1 µM in test [3].
On to `N=C(N)c1cccc(C[C@H](NS(=O)(=O)c2ccc3ccccc3c2)C(=O)C(=O)O)c1`, for which the results for the Ki in test [1], in test [2] and in test [3] were 30 µM, 118 µM and 130 µM, respectively.
With `CNC(=O)[C@H](Cc1cccc(C(=N)N)c1)NS(=O)(=O)c1c(C)cc(C)cc1C`, the values for the inhibition constant Ki in test [2] and in test [3] were 1000 µM and 640 µM, respectively.
Turning to `N=C(N)c1cccc(C[C@H](NS(=O)(=O)c2ccc3ccccc3c2)C(=O)N2CCCCC2)c1`, the values for the inhibition constant (Ki) in test [1] and in test [3] were 0.0646 µM and 38 µM, respectively.
As for `CS(=O)(=O)N1CCN(C(=O)[C@H](Cc2cccc(C(=N)N)c2)NS(=O)(=O)c2cccc3ccccc23)CC1`, the Ki was 0.026 µM in test [1] and 9.71 µM in test [3].
With `N=C(N)c1cccc(C[C@H](NS(=O)(=O)c2ccc3ccccc3c2)C(=O)N2CC(C(=O)O)=Cc3ccccc32)c1`, the Ki in test [2] is 31 µM; in test [3], 41 µM.
As to `CC1CCN(C(=O)[C@H](Cc2cccc(C(=N)N)c2)NS(=O)(=O)c2ccc3ccccc3c2)CC1`, the Ki in test [3] is 41 µM.
Turning to `CC(C)(C)c1ccc(S(=O)(=O)N[C@@H](Cc2cccc(C(=N)N)c2)C(=O)N2CCN(S(C)(=O)=O)CC2)cc1`, the Ki in test [1] is 0.00427 µM; in test [2], 0.16 µM.
In the case of `N=C(N)c1cccc(C[C@H](NS(=O)(=O)c2ccc3ccccc3c2)C(=O)N2CCC[C@H]2C(=O)O)c1`, the figures for the Ki in test [2] and in test [3] were 16 µM and 130 µM, respectively.
Take `CC(=O)N1CCN(C(=O)[C@H](Cc2cccc(C(=N)N)c2)NS(=O)(=O)c2ccc3ccccc3c2)CC1`: the inhibition constant Ki in test [2] was 0.141 µM; in test [3], 48 µM.
For `CC(C)c1cc(C(C)C)c(S(=O)(=O)N[C@@H](Cc2cccc(C(=N)N)c2)C(=O)N2CCC[C@H](C(=O)O)C2)c(C(C)C)c1`, the inhibition constant Ki in test [2] is 2.4 µM; in test [3], 13 µM.
